Measured values taken from ChEMBL document CHEMBL4251694 (ACS Med Chem Lett, 2018).

How the values were obtained:
[1] = test system: Influenza A virus; assay: Antiviral activity against Influenza A virus A/WSN/33 H1N1 harboring N31S mutant infected in MDCK cells assessed as reduction in virus-induced cytopathic effect by crystal violet staining based light-microscopic analysis; assay type: functional, organism-based, A/WSN/1933(H1N1)
[2] = biological target: Matrix protein 2 (Influenza A virus (A/Udorn/307/1972(H3N2)), UniProt P0DOF8, S31N); assay: Binding affinity to Influenza A virus A/Udorn/72 M2 proton channel S31N mutant by isothermal calorimetric titration; set-up: species or system Influenza A virus (A/udorn/1972(H3N2))
[3] = biological target: Matrix protein 2 (Influenza A virus (A/Udorn/307/1972(H3N2)), UniProt P0DOF8, S31N); assay: Binding affinity to Influenza A virus A/Udorn/72 M2 proton channel S31N mutant expressed in Xenopus laevis oocytes at pH 5.5 by two-electrode voltage clamp assay; assay type: cell-based, Influenza A virus (A/udorn/1972(H3N2))

`CCC(N)(CC)C12CC3CC(CC(C3)C1)C2` was tested, and the EC50 [1] was 1.01 µM.

In the case of `C[C@H](N)C12CC3CC(CC(C3)C1)C2`, the EC50 [1] is reported as 0.02 µM.

Compound `CCOC(=O)C1=C[C@@H](OC(CC)CC)[C@H](NC(C)=O)[C@@H](N)C1` [OSELTAMIVIR] has an EC50 [1] of 0.02 µM.

`CCCC(N)(CCC)C12CC3CC(CC(C3)C1)C2` was tested, and the Kd [2] was greater than 10 µM, the EC50 [1] was 1.06 µM and the Kd [3] was 1800 µM.

For `CC(C)(N)C12CC3CC(CC(C3)C1)C2`, the EC50 [1] was 0.03 µM and the Kd [3] was 444 µM.

With `NC12CC3CC(CC(C3)C1)C2` [AMANTADINE] the EC50 [1] was 0.48 µM.

`C[C@@H](N)C12CC3CC(CC(C3)C1)C2` gave an EC50 [1] of 0.04 µM.

`CC(N)C12CC3CC(CC(C3)C1)C2` (stereo unspecified) [RIMANTADINE] showed an EC50 [1] of 0.04 µM.
